We go through one compound from PMC12655338, “Reversing the Warburg Effect: YW3-56 Induces Leukemia Differentiation via AKT-Mediated Glucose Metabolic Reprogramming” (Pharmaceuticals, 2025).

For the assay, the target named is T1, PAD4 (Protein arginine deiminase 4) (Homo sapiens, UniProt Q9UM07).
T1 construct: gene PADI4
Put plainly: colorimetric PAD4 enzyme assay, citrullination of BAEE. The assay is classed as biochemical.

T1 sequence (Q9UM07 whole entry): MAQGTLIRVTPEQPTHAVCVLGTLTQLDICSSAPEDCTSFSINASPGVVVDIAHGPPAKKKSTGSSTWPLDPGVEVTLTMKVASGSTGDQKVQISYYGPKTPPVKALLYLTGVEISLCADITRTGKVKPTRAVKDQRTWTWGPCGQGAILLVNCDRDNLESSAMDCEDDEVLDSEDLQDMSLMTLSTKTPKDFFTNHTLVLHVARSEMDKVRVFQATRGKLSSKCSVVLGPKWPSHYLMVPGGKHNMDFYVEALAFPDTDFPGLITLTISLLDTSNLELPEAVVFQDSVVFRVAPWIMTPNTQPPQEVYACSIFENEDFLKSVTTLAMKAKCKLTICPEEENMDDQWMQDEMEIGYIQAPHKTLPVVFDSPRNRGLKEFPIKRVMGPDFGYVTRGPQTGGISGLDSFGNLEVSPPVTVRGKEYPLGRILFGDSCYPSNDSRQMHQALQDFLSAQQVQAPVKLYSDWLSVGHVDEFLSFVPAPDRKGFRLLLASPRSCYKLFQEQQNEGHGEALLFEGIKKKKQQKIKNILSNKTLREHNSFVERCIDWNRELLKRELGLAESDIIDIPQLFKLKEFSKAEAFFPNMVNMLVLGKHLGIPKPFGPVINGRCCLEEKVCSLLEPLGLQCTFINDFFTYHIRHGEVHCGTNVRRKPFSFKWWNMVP

The term IC50 denotes the concentration that inhibits the measured activity by half. `CN(C)c1ccc2cc(C(=O)N[C@@H](CCCNC(=N)CCl)C(=O)NCc3ccccc3)ccc2c1` [YW3-56] came in with an IC50 of 4.1 ± 0.28 µM.
